According to patent US20120100077A1, “MIXTURE OF AMPHIPATHIC MOLECULES AND METHOD FOR MODIFYING CELL MEMBRANES BY MEANS OF FUSION” (priority 2009, published 2012):
Where two headings read alike, the source gives them in different places.

Key:
cell membrane [1] = experiment: Fusion quality of R groups bound to amphipathic molecules B in the fusion mixture
Description: (§1) After homogenization in the organic solvent, the organic solvent should be removed.
(§2) The dried mixture is taken up in an aqueous buffer solution, preferably having a pH value of 7, and is homogenized once more. Advantageously a liposome forms, which comprises the molecule types that were added. Molecules of molecule types E and F can likewise be added.
(§3) According to the actual method, the fusion mixture is diluted with a cell medium, e.g. 1:100 (mixture:cell medium v/v), homogenized once more, and added to the cells.
(§4) To this end it is sufficient for the cells to be brought in contact with the mixture for approximately 1 to 60 minutes, and in the case of tissue samples, for 60 to 120 minutes, for example. A cell washing step should then be incorporated.

cell membrane [2] = system: cell membrane
Description: as §1, §2, §3, §4

[3] = R group covalently bound to lipid (molecule type B)

Molecule	Fusion quality (cell membrane [1])	Fusion quality (cell membrane [1]; [3])	also measured
CCCCCCCC/C=C\CCCCCCCC(=O)OC[C@H](COP(=O)(O)OCCNC(=O)CCCCCNC(=O)CCCCC1SCC2NC(=O)NC21)OC(=O)CCCCCCC/C=C\CCCCCCCC (stereo partly drawn) [capBiotin, 1,2-dioleoyl-sn-glycero-3-phosphoethanolamine-N-cap-biotin]	6	–	function as fusion-inducing molecule type B (cell membrane [1]): do not, however, function
CCCCCCCCCCCCCCCCCCN1C(=CC=Cc2oc3ccccc3[n+]2CCCCCCCCCCCCCCCCCC)Oc2ccccc21.[O-][Cl+3]([O-])([O-])[O-] [DiO per se, DiOC18(3)3,3′-dioctadecyloxacarbocyanine perchlorate]	–	1	–
CCCCC/C=C\C/C=C\C/C=C\C/C=C\CCCC(=O)O[C@H](COC(=O)CCCCCCCCCCCCCCCCC)COP(=O)([O-])O[C@H]1C(O)C(O)C(O)[C@@H](O)C1O.[Na+] (stereo partly drawn) [inositol, L-α-phosphatidylinositol (sodium salt)]	–	6	function as fusion-inducing molecule type B (cell membrane [1]): non-functional; toxic (cell membrane [1]; [3]): toxic
Texas Red 1,2-dihexadecanoyl-sn-glycero-3-phosphoethanolamine (triethylammonium salt) [Texas-Red]	–	1	–
CCCCCCCC/C=C\CCCCCCCC(=O)OC[C@H](COP(=O)(O)OCCNS(=O)(=O)c1ccc(-c2c3ccc(N(CC)CC)cc3[o+]c3cc(N(CC)CC)ccc23)c(S(=O)(=O)[O-])c1)OC(=O)CCCCCCC/C=C\CCCCCCCC.CCN(CC)CC [LR, Lissamine rhodamine B 1,2-diolenoyl-sn-glycero-3-phosphoethanolamine, (triethylammonium salt)]	1	–	–
c1cc2ccc3cccc4ccc(c1)c2c34 [pyrene]	–	–	toxic (cell membrane [2]): 5(toxic)
CCCCCCCC/C=C\CCCCCCCC(=O)OC[C@H](COP(=O)(O)OCCNC(=O)OCCOCCOCCOCCOCCOCCOCCOCCOCCOCCOCCOCCOCCOCCOCCOCCOCCOCCOCCOCCOCCOCCOCCOCCOCCOCCOCCOCCOCCOCCOCCOCCOCCOCCOCCOCCOCCOCCOCCOCCOCCOCCOCCOCCOCCOC)OC(=O)CCCCCCC/C=C\CCCCCCCC.N [PEG(2000), 1,2-dioleoyl-sn-glycero-3-phosphoethanolamine-N-[methoxy(polyethylene glycol)-2000](ammonium salt)]	–	6	toxic (cell membrane [1]; [3]): toxic
CCCCCCCC/C=C\CCCCCCCC(=O)OC[C@H](COP(=O)(O)OCCNc1ccc([N+](=O)[O-])c2nonc12)OC(=O)CCCCCCC/C=C\CCCCCCCC.CCN(CC)CC [NBD, N-(7-nitrobenz-2-oxa-1,3-diazol-4-yl)-1,2-diolenoyl-sn-glycero-3-phosphoethanolamine (triethylammonium salt)]	2	–	–
